Test results as given in patent US9440973B2, “Pyrido[3,4-d]pyrimidine-2,4(1H,3H)-dione derivatives” (Hydra Biosciences, Inc., priority 2014, dated 2016).
pIC50: −log10 of the molar value.

What follows are compounds tested against T1, TRPC5 channel (Homo sapiens, UniProt Q9UL62) (assay: Whole-cell patch clamp experiments on TRPC5 current). Conditions: TRPC5-expressing HEK293 TREx cells, current activated by LaCl3, holding potential −40 mV, currents quantified at −80 mV and +80 mV.
T1 construct: expressed in transfected cells; host or cells: HEK293/TREx (Invitrogen), tetracycline-induced
T1 sequence (Q9UL62 1-973): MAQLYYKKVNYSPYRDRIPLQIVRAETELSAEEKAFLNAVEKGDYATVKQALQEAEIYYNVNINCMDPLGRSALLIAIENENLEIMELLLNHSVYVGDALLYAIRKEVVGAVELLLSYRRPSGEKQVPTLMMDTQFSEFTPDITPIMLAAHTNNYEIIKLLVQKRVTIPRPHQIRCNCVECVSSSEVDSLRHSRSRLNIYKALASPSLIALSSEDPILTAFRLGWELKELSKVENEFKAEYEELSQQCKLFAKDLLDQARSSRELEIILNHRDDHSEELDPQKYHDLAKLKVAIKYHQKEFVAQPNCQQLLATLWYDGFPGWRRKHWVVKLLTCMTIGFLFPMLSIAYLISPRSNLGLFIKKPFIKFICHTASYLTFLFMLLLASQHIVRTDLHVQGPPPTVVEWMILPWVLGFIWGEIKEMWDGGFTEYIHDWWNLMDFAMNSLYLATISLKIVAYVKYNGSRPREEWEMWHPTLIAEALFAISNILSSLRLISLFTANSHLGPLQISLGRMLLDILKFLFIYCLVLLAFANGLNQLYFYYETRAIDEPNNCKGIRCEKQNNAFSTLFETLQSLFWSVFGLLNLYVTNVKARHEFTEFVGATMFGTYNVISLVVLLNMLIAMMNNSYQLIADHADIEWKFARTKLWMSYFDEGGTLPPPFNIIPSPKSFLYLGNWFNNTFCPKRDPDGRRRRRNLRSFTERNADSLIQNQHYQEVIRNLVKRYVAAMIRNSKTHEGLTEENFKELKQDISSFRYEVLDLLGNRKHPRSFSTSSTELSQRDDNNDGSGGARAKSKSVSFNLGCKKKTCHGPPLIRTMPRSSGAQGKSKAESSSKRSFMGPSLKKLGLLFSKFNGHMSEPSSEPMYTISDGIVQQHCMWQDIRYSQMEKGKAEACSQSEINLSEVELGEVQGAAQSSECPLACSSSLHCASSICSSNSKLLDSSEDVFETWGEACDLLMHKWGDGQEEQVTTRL
Type: cell-based
Description: Patch clamp experiments permit the detection of currents through the TRPC5 channel in the cell line described above. In normal whole-cell patch clamp recordings, a glass electrode is brought into contact with a single cell and a high-resistance (gigaohm) seal is established with the cell membrane. The membrane is then ruptured to achieve the whole-cell configuration, permitting control of the voltage of the cell membrane and measurement of currents flowing across the membrane using the amplifier attached to the electrode and resulting in the replacement of cytoplasm with the pipette solution. A perfusion system permits control of the extracellular solution, including the addition of blockers and activators of the current. The current can be activated by including 1.4 μM free Ca^2+ in the pipette (intracellular) solution, and 80 μM LaCl3 in the extracellular solution.
TRPC5 cells were induced 20-48 hours, removed from growth plates, and replated at low density (to attain good single-cell physical separation) on glass coverslips for measurement. In some cases, cells were grown in low density overnight on glass coverslips. […] Currents elicited were quantified at −80 mV and +80 mV. The internal solution consisted of 140 mM cesium aspartate, 10 mM HEDTA, 2 mM CaCl2, 2.27 mM MgCl2 and 10 mM HEPES, pH 7.2, with 1,400 nM calculated free Ca^2+. […]

Compound | pIC50
CC(C)c1ccccc1-c1ncc2c(c1Cc1ccc(Cl)cc1)c(=O)n(CCCO)c(=O)n2C [Compound 49, 5-(4-chlorobenzyl)-3-(3-hydroxypropyl)-6-(2-isopropylphenyl)-1-methylpyrido[3,4-d]pyrimidine-2,4(1H,3H)-dione] | 7.41

The compounds below were run against T1, TRPC5 channel (assay: High throughput screening assay: Fluo4 cell-based fluorescence Ca2+ influx assay). Conditions: HEK293/TREx cells inducibly expressing TRPC5, inhibition of [Ca2+]i rise after high-Ca2+ Ringer (14 mM Ca2+), triplicate, 0.027-20 μM.
Description: The assay depended on detection of the rise in intracellular Ca2+ concentration ([Ca2+]i) following channel activation in cells inducibly expressing the TRPC5 channel. Ca2+ rise was quantified with the use of fluorescent Ca2+ indicators that were loaded into cells and thereafter indicated the [Ca2+]i Ca2+ influx followed activation of the TRPC5 channel. Compounds inhibiting the [Ca2+]i rise were considered hits for further investigation.
The commercially available HEK293/TREx line (Invitrogen) was stably transfected with a TRPC5 construct and screened by conventional calcium imaging to find clones with TRPC5 expression following stimulation with 1 μg/ml tetracycline. These cells were maintained in the growth medium recommended by the manufacturer supplemented with 100 μg/ml hygromycin to promote retention of the TRPC5 construct. After growing to near confluency, cells were plated at a density of ˜35,000 cells/well in 384 well CellBind plates (Corning) in the presence of 1 μg/ml tetracycline, and allowed to grow for 20-30 hrs. A nearly confluent monolayer resulted. Cells were then loaded with Ca2+ dye: Fura-2/AM or Fluo4/AM was added to the wells to a final concentration of 4 μM or 0.5 μM, respectively, and incubated for 80 min or 60 min, respectively, at room temperature. Supernatant was then removed from the cells by inverting plates with a sharp flick, and 25 μl Hank's Balanced Salt Solution (HBSS; 0.185 g/l D-glucose, 0.9767 g/l MgSO4 (anhydrous), 0.4 g/l KCl, 0.06 g/l KH2PO4 (anhydrous), 0.35 g/l NaHCO3, 8.0 g/l NaCl, and 0.04788 g/l Na2HPO4 (anhydrous); pH 7.4) was then added to each well. Following ˜0.5 hour for recovery from loading, cells were assayed using the Hamamatsu FDSS 6000 system, which permitted illumination alternately at 340 nm and 380 nm for Fura-2 experiments, or at 485 nm for Fluo4 experiments. Frames were acquired at a rate of 0.2 Hz. During the assay, the plates were continuously vortexed, with pipette mixing of wells following addition of each reagent. For the screening assay, 26 μl of a diluted compound stock (at 50 μM) was added to each well for 2 minutes following the collection of a short (4 frame) baseline. 13 μl 62 mM high-Ca2+ Ringer solution (4.17 ml of normal ringer (with 2 mM Ca2+) plus 5.83 ml of isotonic calcium ringer (105 mM Ca2+; in this ringer all sodium has been replaced with calcium)) was then added to each well, achieving a final concentration of 14 mM Ca2+ and 10 μM test compound. Data was collected for ˜3 minutes following addition of high Ca2+ Ringer, where the fluorescent intensity (for Fluo4) and the F340/F380 ratio (for Fura-2) were proportional to the [Ca2+]i Negative controls consisted of HEK293/TREx TRPC5 cells exposed to high Ca2+ solution, but no compound. Positive control conditions consisted of addition of 2-APB, a promiscuous blocker of TRPC5 and other channels, to columns 23 and 24 of the plates, to a final concentration of 200 μM. These controls defined a screening window, and “hits” were defined as those compounds inhibiting the fluorescence response by at least 40%. IC50 values were determined for compounds defined as “hits.” The Fluo4 cell-based fluorescence assay was used to determine the intracellular Ca2+ concentration in the presence of varying drug concentration. Final concentrations of compounds tested were 20 μM, 6.667 μM, 2.222 μM, 0.741 μM, 0.247 μM, 0.082 μM, and 0.027 μM. Compounds were tested in triplicate at all concentrations. Standard software was used to fit IC50 curves. A value of NF was assigned when no IC50 curves could not be fit.
Additionally or alternatively, efficacy can be represented as % inhibition in the presence (of a given concentration of compound) versus the absence of compound or in comparison to a control compound. For example, efficacy can be represented as % inhibition of ion flux in the presence versus the absence of compound.

Compound | pIC50
CC(C)c1ccccc1-c1cc2c(=O)n(CCCO)c(=O)n(C)c2cn1 [Compound 46, 3-(3-hydroxypropyl)-6-(2-isopropylphenyl)-1-methylpyrido[3,4-d]pyrimidine-2,4(1H,3H)-dione] | 5.37
Cn1c(=O)n(CCCO)c(=O)c2c(Cc3ccc(Cl)cc3)c(-c3ccc(Cl)cc3)ncc21 [Compound 47, 5-(4-chlorobenzyl)-6-(4-chlorophenyl)-3-(3-hydroxypropyl)-1-methylpyrido[3,4-d]pyrimidine-2,4(1H,3H)-dione] | 5.79
CC(C)CCc1c(-c2ccc(Cl)cc2)ncc2c1c(=O)n(CCCO)c(=O)n2C [Compound 48, 6-(4-chlorophenyl)-3-(3-hydroxypropyl)-5-isopentyl-1-methylpyrido[3,4-d]pyrimidine-2,4(1H,3H)-dione] | 5.80
CC(C)c1ccccc1-c1ncc2c(c1Cc1ccc(Cl)cc1)c(=O)n(CCCO)c(=O)n2C [Compound 49, 5-(4-chlorobenzyl)-3-(3-hydroxypropyl)-6-(2-isopropylphenyl)-1-methylpyrido[3,4-d]pyrimidine-2,4(1H,3H)-dione] | 5.63
CC(C)CCc1c(-c2ccccc2C(C)C)ncc2c1c(=O)n(CCCO)c(=O)n2C [Compound 50, 3-(3-hydroxypropyl)-5-isopentyl-6-(2-isopropylphenyl)-1-methylpyrido[3,4-d]pyrimidine-2,4(1H,3H)-dione] | 5.01
Cn1c(=O)n(CCCO)c(=O)c2c(Cc3ccc(Cl)cc3)c(Oc3cccc(Cl)c3)ncc21 [Compound 51, 5-(4-chlorobenzyl)-6-(3-chlorophenoxy)-3-(3-hydroxypropyl)-1-methylpyrido[3,4-d]pyrimidine-2,4(1H,3H)-dione] | 5.05
CC(C)CCc1c(-c2cccc(Cl)c2)ncc2c1c(=O)n(CCCO)c(=O)n2C [Compound 52, 6-(3-chlorophenyl)-3-(3-hydroxypropyl)-5-isopentyl-1-methylpyrido[3,4-d]pyrimidine-2,4(1H,3H)-dione] | 5.38
Cn1c(=O)n(CCCO)c(=O)c2c(Cc3ccccc3)c(-c3cccc(OC(F)(F)F)c3)ncc21 [Compound 53, 5-benzyl-3-(3-hydroxypropyl)-1-methyl-6-(3-(trifluoromethoxy)phenyl)pyrido[3,4-d]pyrimidine-2,4(1H,3H)-dione] | 6.71
